Species: Rattus norvegicus
Test: Open TG-GATES - Regimen: Single
Type: toxicity, organism-based, Sprague-Dawley
Set-up: regimen Single, gender Male, age 6 weeks
Conditions: in vivo, po, route gavage; for APTT / Bas / Eos / Fbg / Hb / Ht / Lym / MCH / MCHC / MCV / Mono / Neu / PT / Plat / RBC / Ret / WBC: tissue Blood; for KIDNEY_L / KIDNEY_R / KIDNEY_TOTAL: tissue Kidney; for LIVER: tissue Liver; for A/G / ALP / ALT / AST / BUN / CRE / Ca / Cl / DBIL / GLC / IP / K / LDH / Na / PL / RALB / TBIL / TC / TG / TP / gamma-GTP: tissue Plasma
[1] = 50 mg/kg, 3 h, dose level Middle
[2] = 50 mg/kg, 6 h, dose level Middle
[3] = 50 mg/kg, 9 h, dose level Middle
[4] = 50 mg/kg, 24 h, dose level Middle
[5] = 150 mg/kg, 3 h, dose level High
[6] = 150 mg/kg, 6 h, dose level High
[7] = 150 mg/kg, 9 h, dose level High
[8] = 150 mg/kg, 24 h, dose level High

CC1=C(CC(=O)O)c2cc(F)ccc2/C1=C\c1ccc([S+](C)[O-])cc1 (centres undefined)
TERMINAL_BW [1]: 204.9 g
APTT [1]: 16.8 s
Bas [1]: 0%
Eos [1]: 1%
Fbg [1]: 266 mg/dL
Hb [1]: 13.2 g/dL
Ht [1]: 40.3%
Lym [1]: 77.6%
MCH [1]: 21.2 pg
MCHC [1]: 32.7%
MCV [1]: 65 fL
Mono [1]: 2.6%
Neu [1]: 18.4%
PT [1]: 14.1 s
Plat [1]: 130.3 x10_4/uL
RBC [1]: 620.8 x10_4/ul
Ret [1]: 8.7%
WBC [1]: 77.3 x10_2/uL
KIDNEY_L [1]: 0.9 g
KIDNEY_R [1]: 0.9 g
KIDNEY_TOTAL [1]: 1.8 g
LIVER [1]: 9 g
A/G [1]: 0.9
ALP [1]: 1442.8 IU/L
ALT [1]: 43.4 IU/L
AST [1]: 76.2 IU/L
BUN [1]: 11.4 mg/dL
CRE [1]: 0.2 mg/dL
Ca [1]: 11 mg/dL
Cl [1]: 104.8 meq/L
DBIL [1]: 0.01 mg/dL
GLC [1]: 166.8 mg/dL
IP [1]: 8.6 mg/dL
K [1]: 3.9 meq/L
LDH [1]: 81.4 IU/L
Na [1]: 141.6 meq/L
PL [1]: 140.4 mg/dL
RALB [1]: 2.5 g/dL
TBIL [1]: 0.046 mg/dL
TC [1]: 74.6 mg/dL
TG [1]: 58.8 mg/dL
TP [1]: 5.3 g/dL
gamma-GTP [1]: 1.2 IU/L
TERMINAL_BW [2]: 201.8 g
APTT [2]: 15.7 s
Bas [2]: 0%
Eos [2]: 0.8%
Fbg [2]: 289.4 mg/dL
Hb [2]: 13.7 g/dL
Ht [2]: 42.1%
Lym [2]: 78.4%
MCH [2]: 21.1 pg
MCHC [2]: 32.6%
MCV [2]: 64.6 fL
Mono [2]: 3%
Neu [2]: 17.2%
PT [2]: 13.8 s
Plat [2]: 113.6 x10_4/uL
RBC [2]: 652.4 x10_4/ul
Ret [2]: 7.8%
WBC [2]: 73.5 x10_2/uL
KIDNEY_L [2]: 0.9 g
KIDNEY_R [2]: 0.9 g
KIDNEY_TOTAL [2]: 1.9 g
LIVER [2]: 8.4 g
A/G [2]: 0.9
ALP [2]: 1437 IU/L
ALT [2]: 44.4 IU/L
AST [2]: 69.8 IU/L
BUN [2]: 10.8 mg/dL
CRE [2]: 0.2 mg/dL
Ca [2]: 11 mg/dL
Cl [2]: 106 meq/L
DBIL [2]: 0.01 mg/dL
GLC [2]: 172.4 mg/dL
IP [2]: 9.4 mg/dL
K [2]: 4.3 meq/L
LDH [2]: 69.6 IU/L
Na [2]: 141 meq/L
PL [2]: 135.6 mg/dL
RALB [2]: 2.6 g/dL
TBIL [2]: 0.044 mg/dL
TC [2]: 70.8 mg/dL
TG [2]: 47.8 mg/dL
TP [2]: 5.3 g/dL
gamma-GTP [2]: 1 IU/L
TERMINAL_BW [3]: 202.2 g
APTT [3]: 16.8 s
Bas [3]: 0%
Eos [3]: 0.8%
Fbg [3]: 291.6 mg/dL
Hb [3]: 13.5 g/dL
Ht [3]: 41.5%
Lym [3]: 79.4%
MCH [3]: 20.6 pg
MCHC [3]: 32.6%
MCV [3]: 63.2 fL
Mono [3]: 2.6%
Neu [3]: 16.8%
PT [3]: 14 s
Plat [3]: 117.4 x10_4/uL
RBC [3]: 656.4 x10_4/ul
Ret [3]: 7.8%
WBC [3]: 67.5 x10_2/uL
KIDNEY_L [3]: 0.9 g
KIDNEY_R [3]: 0.9 g
KIDNEY_TOTAL [3]: 1.9 g
LIVER [3]: 8.2 g
A/G [3]: 0.9
ALP [3]: 1341.4 IU/L
ALT [3]: 42.2 IU/L
AST [3]: 67.8 IU/L
BUN [3]: 11.2 mg/dL
CRE [3]: 0.2 mg/dL
Ca [3]: 10.8 mg/dL
Cl [3]: 106.6 meq/L
DBIL [3]: 0.01 mg/dL
GLC [3]: 177.6 mg/dL
IP [3]: 9.9 mg/dL
K [3]: 4.4 meq/L
LDH [3]: 65.6 IU/L
Na [3]: 142 meq/L
PL [3]: 135 mg/dL
RALB [3]: 2.6 g/dL
TBIL [3]: 0.04 mg/dL
TC [3]: 71.6 mg/dL
TG [3]: 38 mg/dL
TP [3]: 5.3 g/dL
gamma-GTP [3]: 1.2 IU/L
TERMINAL_BW [4]: 210.3 g
APTT [4]: 16.1 s
Bas [4]: 0%
Eos [4]: 0.6%
Fbg [4]: 354.6 mg/dL
Hb [4]: 13.7 g/dL
Ht [4]: 42.2%
Lym [4]: 62%
MCH [4]: 21 pg
MCHC [4]: 32.5%
MCV [4]: 64.8 fL
Mono [4]: 3.2%
Neu [4]: 33.8%
PT [4]: 13.5 s
Plat [4]: 133.9 x10_4/uL
RBC [4]: 653.2 x10_4/ul
Ret [4]: 7.9%
WBC [4]: 115.7 x10_2/uL
KIDNEY_L [4]: 0.9 g
KIDNEY_R [4]: 0.9 g
KIDNEY_TOTAL [4]: 1.9 g
LIVER [4]: 9.7 g
A/G [4]: 1
ALP [4]: 1280.2 IU/L
ALT [4]: 43 IU/L
AST [4]: 67.8 IU/L
BUN [4]: 14.6 mg/dL
CRE [4]: 0.2 mg/dL
Ca [4]: 11 mg/dL
Cl [4]: 103.4 meq/L
DBIL [4]: 0.01 mg/dL
GLC [4]: 189.6 mg/dL
IP [4]: 7.9 mg/dL
K [4]: 4 meq/L
LDH [4]: 86.2 IU/L
Na [4]: 141 meq/L
PL [4]: 141.8 mg/dL
RALB [4]: 2.5 g/dL
TBIL [4]: 0.024 mg/dL
TC [4]: 78.4 mg/dL
TG [4]: 88.4 mg/dL
TP [4]: 5.2 g/dL
gamma-GTP [4]: 1 IU/L
TERMINAL_BW [5]: 202.5 g
APTT [5]: 18.7 s
Bas [5]: 0%
Eos [5]: 0.8%
Fbg [5]: 270.6 mg/dL
Hb [5]: 12.9 g/dL
Ht [5]: 38.9%
Lym [5]: 76.4%
MCH [5]: 21 pg
MCHC [5]: 33.2%
MCV [5]: 63.4 fL
Mono [5]: 3%
Neu [5]: 18.8%
PT [5]: 14.3 s
Plat [5]: 126.3 x10_4/uL
RBC [5]: 615.4 x10_4/ul
Ret [5]: 7.8%
WBC [5]: 82 x10_2/uL
KIDNEY_L [5]: 0.9 g
KIDNEY_R [5]: 0.9 g
KIDNEY_TOTAL [5]: 1.8 g
LIVER [5]: 8.9 g
A/G [5]: 1
ALP [5]: 1334 IU/L
ALT [5]: 39.2 IU/L
AST [5]: 71.2 IU/L
BUN [5]: 10.4 mg/dL
CRE [5]: 0.2 mg/dL
Ca [5]: 10.7 mg/dL
Cl [5]: 103.8 meq/L
DBIL [5]: 0.006 mg/dL
GLC [5]: 161.2 mg/dL
IP [5]: 8.1 mg/dL
K [5]: 4 meq/L
LDH [5]: 67.8 IU/L
Na [5]: 139.8 meq/L
PL [5]: 144.4 mg/dL
RALB [5]: 2.5 g/dL
TBIL [5]: 0.044 mg/dL
TC [5]: 75.6 mg/dL
TG [5]: 71.4 mg/dL
TP [5]: 5.2 g/dL
gamma-GTP [5]: 1 IU/L
TERMINAL_BW [6]: 201.1 g
APTT [6]: 17.9 s
Bas [6]: 0%
Eos [6]: 0.4%
Fbg [6]: 280 mg/dL
Hb [6]: 13.3 g/dL
Ht [6]: 40.9%
Lym [6]: 65.8%
MCH [6]: 21 pg
MCHC [6]: 32.7%
MCV [6]: 64.4 fL
Mono [6]: 3.6%
Neu [6]: 29.2%
PT [6]: 14 s
Plat [6]: 133.5 x10_4/uL
RBC [6]: 635 x10_4/ul
Ret [6]: 8.1%
WBC [6]: 68.2 x10_2/uL
KIDNEY_L [6]: 0.9 g
KIDNEY_R [6]: 1 g
KIDNEY_TOTAL [6]: 1.9 g
LIVER [6]: 8.2 g
A/G [6]: 1
ALP [6]: 1506 IU/L
ALT [6]: 40 IU/L
AST [6]: 71.4 IU/L
BUN [6]: 10.4 mg/dL
CRE [6]: 0.2 mg/dL
Ca [6]: 10.7 mg/dL
Cl [6]: 104.8 meq/L
DBIL [6]: 0.01 mg/dL
GLC [6]: 168.4 mg/dL
IP [6]: 9.3 mg/dL
K [6]: 4.1 meq/L
LDH [6]: 77.6 IU/L
Na [6]: 141.2 meq/L
PL [6]: 135.4 mg/dL
RALB [6]: 2.6 g/dL
TBIL [6]: 0.04 mg/dL
TC [6]: 70.6 mg/dL
TG [6]: 33 mg/dL
TP [6]: 5.3 g/dL
gamma-GTP [6]: 1.4 IU/L
TERMINAL_BW [7]: 200.1 g
APTT [7]: 16.2 s
Bas [7]: 0%
Eos [7]: 1%
Fbg [7]: 294.8 mg/dL
Hb [7]: 13.3 g/dL
Ht [7]: 40.5%
Lym [7]: 67.4%
MCH [7]: 20.8 pg
MCHC [7]: 32.8%
MCV [7]: 63.5 fL
Mono [7]: 3.2%
Neu [7]: 28%
PT [7]: 13.8 s
Plat [7]: 122 x10_4/uL
RBC [7]: 638 x10_4/ul
Ret [7]: 7.8%
WBC [7]: 50.2 x10_2/uL
KIDNEY_L [7]: 0.9 g
KIDNEY_R [7]: 0.9 g
KIDNEY_TOTAL [7]: 1.8 g
LIVER [7]: 7.6 g
A/G [7]: 1
ALP [7]: 1365 IU/L
ALT [7]: 37.4 IU/L
AST [7]: 68.8 IU/L
BUN [7]: 9.8 mg/dL
CRE [7]: 0.2 mg/dL
Ca [7]: 10.4 mg/dL
Cl [7]: 107 meq/L
DBIL [7]: 0.014 mg/dL
GLC [7]: 169.4 mg/dL
IP [7]: 10.1 mg/dL
K [7]: 4.2 meq/L
LDH [7]: 72 IU/L
Na [7]: 141.4 meq/L
PL [7]: 127.8 mg/dL
RALB [7]: 2.6 g/dL
TBIL [7]: 0.046 mg/dL
TC [7]: 68.4 mg/dL
TG [7]: 40 mg/dL
TP [7]: 5.2 g/dL
gamma-GTP [7]: 1 IU/L
TERMINAL_BW [8]: 203.3 g
APTT [8]: 15.4 s
Bas [8]: 0%
Eos [8]: 0.4%
Fbg [8]: 378 mg/dL
Hb [8]: 10.3 g/dL
Ht [8]: 32%
Lym [8]: 54.4%
MCH [8]: 20.7 pg
MCHC [8]: 32.3%
MCV [8]: 64 fL
Mono [8]: 2.4%
Neu [8]: 42%
PT [8]: 13 s
Plat [8]: 78.4 x10_4/uL
RBC [8]: 500.2 x10_4/ul
Ret [8]: 8.5%
WBC [8]: 96.3 x10_2/uL
KIDNEY_L [8]: 0.9 g
KIDNEY_R [8]: 0.9 g
KIDNEY_TOTAL [8]: 1.8 g
LIVER [8]: 9.1 g
A/G [8]: 0.9
ALP [8]: 747.4 IU/L
ALT [8]: 30.2 IU/L
AST [8]: 42.6 IU/L
BUN [8]: 24 mg/dL
CRE [8]: 0.2 mg/dL
Ca [8]: 9.3 mg/dL
Cl [8]: 105.2 meq/L
DBIL [8]: 0.008 mg/dL
GLC [8]: 162.4 mg/dL
IP [8]: 9.8 mg/dL
K [8]: 5.1 meq/L
LDH [8]: 58.8 IU/L
Na [8]: 137.2 meq/L
PL [8]: 117 mg/dL
RALB [8]: 1.5 g/dL
TBIL [8]: 0.024 mg/dL
TC [8]: 67.4 mg/dL
TG [8]: 126.6 mg/dL
TP [8]: 3.2 g/dL
gamma-GTP [8]: 0.8 IU/L

Reference: ChEMBL document CHEMBL3885861, “Open TG-GATES”
